Laboratory results from ChEMBL document CHEMBL6096675 (J Med Chem, 2025).

Tests used:
[1] = biological target: von Hippel-Lindau disease tumor suppressor/SWI/SNF-related matrix-associated actin-dependent regulator of chromatin subfamily A member 4 (Homo sapiens, UniProt P51532+P40337); assay: PROTAC activity at SMARCA4/VHL1 in human HeLa cells assessed as protein degradation by Nano-Glo HiBiT lytic detection assay; assay type: cell-based
[2] = biological target: von Hippel-Lindau disease tumor suppressor/SWI/SNF-related matrix-associated actin-dependent regulator of chromatin subfamily A member 2 (Homo sapiens, UniProt P51531+P40337); assay: PROTAC activity at SMARCA2/VHL1 in human HeLa cells assessed as protein degradation by Nano-Glo HiBiT lytic detection assay; assay type: cell-based
Chain of von Hippel-Lindau disease tumor suppressor/SWI/SNF-related matrix-associated actin-dependent regulator of chromatin subfamily A member 2 (P51531 whole entry): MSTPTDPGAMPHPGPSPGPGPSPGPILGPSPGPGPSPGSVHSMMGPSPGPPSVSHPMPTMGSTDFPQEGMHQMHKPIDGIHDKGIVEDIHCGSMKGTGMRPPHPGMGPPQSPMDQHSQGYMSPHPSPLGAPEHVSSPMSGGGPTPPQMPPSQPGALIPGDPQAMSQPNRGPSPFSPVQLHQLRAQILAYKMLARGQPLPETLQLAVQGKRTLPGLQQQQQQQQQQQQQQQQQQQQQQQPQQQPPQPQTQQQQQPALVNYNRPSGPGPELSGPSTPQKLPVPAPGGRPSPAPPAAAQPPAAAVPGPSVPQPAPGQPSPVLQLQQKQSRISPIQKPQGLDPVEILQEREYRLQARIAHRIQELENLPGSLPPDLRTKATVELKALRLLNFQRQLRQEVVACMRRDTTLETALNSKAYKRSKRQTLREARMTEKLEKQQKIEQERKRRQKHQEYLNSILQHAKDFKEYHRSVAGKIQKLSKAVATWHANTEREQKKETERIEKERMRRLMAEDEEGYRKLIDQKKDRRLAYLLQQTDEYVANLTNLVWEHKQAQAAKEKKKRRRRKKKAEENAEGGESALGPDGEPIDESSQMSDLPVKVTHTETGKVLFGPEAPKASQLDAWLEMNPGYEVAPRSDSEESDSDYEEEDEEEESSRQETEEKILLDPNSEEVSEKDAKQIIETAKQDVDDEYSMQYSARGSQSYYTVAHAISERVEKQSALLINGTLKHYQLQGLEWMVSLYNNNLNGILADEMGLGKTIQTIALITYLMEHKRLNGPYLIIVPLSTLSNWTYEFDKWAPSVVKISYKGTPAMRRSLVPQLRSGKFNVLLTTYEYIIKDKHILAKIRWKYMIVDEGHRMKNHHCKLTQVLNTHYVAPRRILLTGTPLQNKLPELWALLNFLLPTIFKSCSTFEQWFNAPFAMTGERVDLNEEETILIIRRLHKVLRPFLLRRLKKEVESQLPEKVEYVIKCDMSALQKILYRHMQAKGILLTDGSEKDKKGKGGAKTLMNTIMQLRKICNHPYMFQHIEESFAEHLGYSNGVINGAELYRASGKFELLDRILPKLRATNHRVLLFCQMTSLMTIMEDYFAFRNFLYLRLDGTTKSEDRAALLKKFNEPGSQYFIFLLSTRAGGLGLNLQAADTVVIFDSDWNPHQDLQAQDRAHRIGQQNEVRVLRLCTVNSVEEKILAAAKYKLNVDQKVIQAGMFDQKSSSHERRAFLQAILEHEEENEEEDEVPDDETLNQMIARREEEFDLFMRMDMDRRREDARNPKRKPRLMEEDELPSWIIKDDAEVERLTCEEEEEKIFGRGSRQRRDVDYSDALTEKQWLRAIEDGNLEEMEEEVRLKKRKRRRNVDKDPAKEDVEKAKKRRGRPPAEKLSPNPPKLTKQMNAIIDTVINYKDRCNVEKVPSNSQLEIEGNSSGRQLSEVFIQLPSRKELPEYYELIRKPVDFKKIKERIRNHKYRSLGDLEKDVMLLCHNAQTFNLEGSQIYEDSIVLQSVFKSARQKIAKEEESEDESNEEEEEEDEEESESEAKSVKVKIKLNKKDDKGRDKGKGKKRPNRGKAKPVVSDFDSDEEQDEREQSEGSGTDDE
Chain of von Hippel-Lindau disease tumor suppressor/SWI/SNF-related matrix-associated actin-dependent regulator of chromatin subfamily A member 2 (P40337 whole entry): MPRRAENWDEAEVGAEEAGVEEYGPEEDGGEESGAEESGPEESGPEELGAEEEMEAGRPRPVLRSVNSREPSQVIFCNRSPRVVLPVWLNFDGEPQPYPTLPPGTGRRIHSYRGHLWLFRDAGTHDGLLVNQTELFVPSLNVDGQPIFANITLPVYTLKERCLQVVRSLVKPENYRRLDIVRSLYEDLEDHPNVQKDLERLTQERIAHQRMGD

[3] = PROTAC activity at SMARCA2/E3 ubiquitin ligase (unknown origin) assessed as protein degradation; set-up: species or system Homo sapiens
[4] = PROTAC activity at SMARCA4/E3 ubiquitin ligase (unknown origin) assessed as protein degradation; set-up: species or system Homo sapiens

Chain of von Hippel-Lindau disease tumor suppressor/SWI/SNF-related matrix-associated actin-dependent regulator of chromatin subfamily A member 4 (P51532 whole entry): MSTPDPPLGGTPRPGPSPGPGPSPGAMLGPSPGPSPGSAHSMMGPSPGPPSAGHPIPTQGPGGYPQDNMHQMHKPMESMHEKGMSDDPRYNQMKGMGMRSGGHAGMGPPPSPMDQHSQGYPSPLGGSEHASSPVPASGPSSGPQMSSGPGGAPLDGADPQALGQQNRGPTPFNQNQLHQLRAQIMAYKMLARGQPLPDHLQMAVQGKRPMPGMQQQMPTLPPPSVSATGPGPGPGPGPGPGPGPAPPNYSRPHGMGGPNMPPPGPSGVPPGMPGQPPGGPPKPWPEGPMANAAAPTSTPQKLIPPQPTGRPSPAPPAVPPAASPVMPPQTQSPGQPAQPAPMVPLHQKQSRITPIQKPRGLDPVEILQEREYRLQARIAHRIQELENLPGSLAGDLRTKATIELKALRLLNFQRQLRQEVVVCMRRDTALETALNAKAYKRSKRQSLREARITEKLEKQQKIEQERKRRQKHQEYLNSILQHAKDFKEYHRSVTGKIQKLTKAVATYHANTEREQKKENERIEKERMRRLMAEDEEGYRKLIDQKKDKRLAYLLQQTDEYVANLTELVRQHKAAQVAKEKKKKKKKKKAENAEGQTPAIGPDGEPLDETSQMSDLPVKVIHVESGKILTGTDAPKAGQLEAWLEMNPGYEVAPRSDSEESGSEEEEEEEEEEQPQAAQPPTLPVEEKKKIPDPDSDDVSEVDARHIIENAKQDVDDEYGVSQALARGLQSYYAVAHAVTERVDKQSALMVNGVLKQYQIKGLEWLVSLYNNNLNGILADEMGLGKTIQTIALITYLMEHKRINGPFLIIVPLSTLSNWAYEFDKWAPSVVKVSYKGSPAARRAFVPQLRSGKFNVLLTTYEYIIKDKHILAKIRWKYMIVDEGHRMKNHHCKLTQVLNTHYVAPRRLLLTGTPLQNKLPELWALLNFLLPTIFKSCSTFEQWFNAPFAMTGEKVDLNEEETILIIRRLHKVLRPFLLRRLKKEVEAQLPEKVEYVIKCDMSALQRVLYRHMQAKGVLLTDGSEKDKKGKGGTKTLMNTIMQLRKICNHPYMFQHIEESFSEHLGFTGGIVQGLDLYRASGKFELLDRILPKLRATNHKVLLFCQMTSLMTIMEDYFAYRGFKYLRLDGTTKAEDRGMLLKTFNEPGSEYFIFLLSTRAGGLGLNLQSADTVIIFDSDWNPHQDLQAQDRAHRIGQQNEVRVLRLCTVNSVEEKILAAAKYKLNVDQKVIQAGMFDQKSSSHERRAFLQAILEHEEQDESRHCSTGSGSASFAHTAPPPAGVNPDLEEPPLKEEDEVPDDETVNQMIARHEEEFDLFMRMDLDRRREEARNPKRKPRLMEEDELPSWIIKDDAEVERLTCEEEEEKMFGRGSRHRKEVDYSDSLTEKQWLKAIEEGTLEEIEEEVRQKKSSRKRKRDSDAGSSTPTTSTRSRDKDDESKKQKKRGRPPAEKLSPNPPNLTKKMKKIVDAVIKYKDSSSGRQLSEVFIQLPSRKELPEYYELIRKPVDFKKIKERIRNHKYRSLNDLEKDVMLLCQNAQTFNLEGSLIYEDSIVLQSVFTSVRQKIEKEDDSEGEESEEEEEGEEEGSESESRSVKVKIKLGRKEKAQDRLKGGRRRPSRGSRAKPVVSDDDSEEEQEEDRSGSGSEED
Chain of von Hippel-Lindau disease tumor suppressor/SWI/SNF-related matrix-associated actin-dependent regulator of chromatin subfamily A member 4 (P40337 whole entry): as the sequence (P40337 whole entry) above

| DC50 [1] [nM] | DC50 [2] [nM] | SMILES | DC50 [3] [nM] | DC50 [4] [nM] |
| --- | --- | --- | --- | --- |
| 3 | 0.29 | Cc1ncsc1-c1ccc([C@H](C)NC(=O)[C@@H]2C[C@@H](O)CN2C(=O)[C@@H](n2cc([C@H]3CC[C@H](CN4CCC(c5ccc6c(c5)C5(CCCCC5)c5nc(=O)c7c(Cl)cccc7n5-6)CC4)CC3)nn2)C(C)(C)C)cc1 |  |  |
| > 1000 | 1 | Cc1ncsc1-c1ccc([C@H](CN2CCOCC2)NC(=O)[C@@H]2C[C@@H](O)CN2C(=O)[C@@H](n2cc([C@H]3CC[C@H](CN4CCC(c5ccc6c(c5)-n5c(nc(=O)c7c(Cl)cccc75)C65CCCCC5)CC4)CC3)nn2)C(C)(C)O)cc1 |  |  |
| 430 | 5 | CC(C)(C)[C@@H](C(=O)N1C[C@H](O)C[C@H]1C(=O)N[C@@H](CN1CCOCC1)c1ccc(-c2ccccc2)cc1)n1cc([C@H]2CC[C@H](CN3CCC(c4ccc5c(c4)-n4c(nc(=O)c6c(Cl)cccc64)C54CCCCC4)CC3)CC2)nn1 |  |  |
| > 1000 | 111 | Cc1ncsc1-c1ccc([C@H](CN2CCC(C(=O)O)CC2)NC(=O)[C@@H]2C[C@@H](O)CN2C(=O)[C@@H](n2cc([C@H]3CC[C@H](CN4CCC(c5ccc6c(c5)-n5c(nc(=O)c7c(Cl)cccc75)C65CCCCC5)CC4)CC3)nn2)C(C)(C)C)cc1 |  |  |
| > 1000 | 3 | COCCOCCOCCOCCOC[C@H](NC(=O)[C@@H]1C[C@@H](O)CN1C(=O)[C@@H](n1cc([C@H]2CC[C@H](CN3CCC(c4ccc5c(c4)-n4c(nc(=O)c6c(Cl)cccc64)C54CCCCC4)CC3)CC2)nn1)C(C)(C)C)c1ccc(-c2scnc2C)cc1 |  |  |
| > 1000 | 16 | CC(C)(C)[C@@H](C(=O)N1C[C@H](O)C[C@H]1C(=O)N[C@@H](CN1CCOCC1)c1ccc(-c2ocnc2C(F)(F)F)cc1)n1cc([C@H]2CC[C@H](CN3CCC(c4ccc5c(c4)-n4c(nc(=O)c6c(Cl)cccc64)C54CCCCC4)CC3)CC2)nn1 |  |  |
| > 1000 | 1 | Cc1nc(C)c(-c2ccc([C@H](CN3CCOCC3)NC(=O)[C@@H]3C[C@@H](O)CN3C(=O)[C@@H](n3cc([C@H]4CC[C@H](CN5CCC(c6ccc7c(c6)-n6c(nc(=O)c8c(Cl)cccc86)C76CCCCC6)CC5)CC4)nn3)C(C)(C)C)cc2)s1 |  |  |
| > 1000 | 5 | Cc1ncsc1-c1ccc([C@H](CN2CCS(=O)(=O)CC2)NC(=O)[C@@H]2C[C@@H](O)CN2C(=O)[C@@H](n2cc([C@H]3CC[C@H](CN4CCC(c5ccc6c(c5)-n5c(nc(=O)c7c(Cl)cccc75)C65CCCCC5)CC4)CC3)nn2)C(C)(C)C)cc1 |  |  |
| 222 | 1 | CC(C)(C)[C@@H](C(=O)N1C[C@H](O)C[C@H]1C(=O)N[C@@H](CN1CCOCC1)c1ccc(-c2ccccc2F)cc1)n1cc([C@H]2CC[C@H](CN3CCC(c4ccc5c(c4)-n4c(nc(=O)c6c(Cl)cccc64)C54CCCCC4)CC3)CC2)nn1 |  |  |
| > 1000 | 2 | COCCOCCOCCOC[C@H](NC(=O)[C@@H]1C[C@@H](O)CN1C(=O)[C@@H](n1cc([C@H]2CC[C@H](CN3CCC(c4ccc5c(c4)-n4c(nc(=O)c6c(Cl)cccc64)C54CCCCC4)CC3)CC2)nn1)C(C)(C)C)c1ccc(-c2scnc2C)cc1 |  |  |
| > 1000 | 2 | Cc1ncsc1-c1ccc([C@H](CN2CCC(F)(F)CC2)NC(=O)[C@@H]2C[C@@H](O)CN2C(=O)[C@@H](n2cc([C@H]3CC[C@H](CN4CCC(c5ccc6c(c5)-n5c(nc(=O)c7c(Cl)cccc75)C65CCCCC5)CC4)CC3)nn2)C(C)(C)C)cc1 |  |  |
|  |  | Cc1ncsc1-c1ccc([C@H](C)NC(=O)[C@H]2C[C@@H](O)CN2C(=O)[C@@H](c2cc(N3CCC(CN4CCC(O[C@H]5C[C@H](Oc6cc(N7C8CCC7CN(c7cc(-c9ccccc9O)nnc7N)C8)ccn6)C5)CC4)CC3)no2)C(C)C)cc1 | 0.04 | 1.1 |
| > 1000 | 2 | Cc1ncsc1-c1ccc([C@H](CN2CC(C)(O)C2)NC(=O)[C@@H]2C[C@@H](O)CN2C(=O)[C@@H](n2cc([C@H]3CC[C@H](CN4CCC(c5ccc6c(c5)-n5c(nc(=O)c7c(Cl)cccc75)C65CCCCC5)CC4)CC3)nn2)C(C)(C)C)cc1 |  |  |
| > 1000 | 1 | Cc1ncsc1-c1ccc([C@H](CN2CC(C)(F)C2)NC(=O)[C@@H]2C[C@@H](O)CN2C(=O)[C@@H](n2cc([C@H]3CC[C@H](CN4CCC(c5ccc6c(c5)-n5c(nc(=O)c7c(Cl)cccc75)C65CCCCC5)CC4)CC3)nn2)C(C)(C)C)cc1 |  |  |
| 789 | 8 | Cc1ccccc1-c1ccc([C@H](CN2CCOCC2)NC(=O)[C@@H]2C[C@@H](O)CN2C(=O)[C@@H](n2cc([C@H]3CC[C@H](CN4CCC(c5ccc6c(c5)-n5c(nc(=O)c7c(Cl)cccc75)C65CCCCC5)CC4)CC3)nn2)C(C)(C)C)cc1 |  |  |
| 2 | 0.15 | Cc1ncsc1-c1ccc([C@H](C)NC(=O)[C@@H]2C[C@@H](O)CN2C(=O)[C@@H](n2cc([C@H]3CC[C@H](CN4CCC(c5ccc6c(c5)C5(CCCCC5)c5nc(=O)c7c(Br)cccc7n5-6)CC4)CC3)nn2)C(C)(C)C)cc1 |  |  |
| > 1000 | 1 | Cc1ncoc1-c1ccc([C@H](CN2CCOCC2)NC(=O)[C@@H]2C[C@@H](O)CN2C(=O)[C@@H](n2cc([C@H]3CC[C@H](CN4CCC(c5ccc6c(c5)-n5c(nc(=O)c7c(Cl)cccc75)C65CCCCC5)CC4)CC3)nn2)C(C)(C)C)cc1 |  |  |
| 575 | 1 | Cc1nc(C)c(-c2ccc([C@H](CN3CCOCC3)NC(=O)[C@@H]3C[C@@H](O)CN3C(=O)[C@@H](n3cc([C@H]4CC[C@H](CN5CCC(c6ccc7c(c6)-n6c(nc(=O)c8c(Cl)cccc86)C76CCCCC6)CC5)CC4)nn3)C(C)(C)C)cc2)o1 |  |  |
| 115 | 0.3 | Cc1ncsc1-c1ccc([C@H](C)NC(=O)[C@@H]2C[C@@H](O)CN2C(=O)[C@@H](n2cc([C@H]3CC[C@H](CN4CCC(c5ccc6c(c5)-n5c(nc(=O)c7c(Cl)cccc75)C65CCCCC5)CC4)CC3)nn2)C(C)(C)C)cc1 |  |  |
| 62 | 1 | Cc1ncsc1-c1ccc([C@H](CN2CCN(C)CC2)NC(=O)[C@@H]2C[C@@H](O)CN2C(=O)[C@@H](n2cc([C@H]3CC[C@H](CN4CCC(c5ccc6c(c5)-n5c(nc(=O)c7c(Cl)cccc75)C65CCCCC5)CC4)CC3)nn2)C(C)(C)C)cc1 |  |  |
| 22 | 0.24 | Cc1ncsc1-c1ccc([C@H](C)NC(=O)[C@@H]2C[C@@H](O)CN2C(=O)[C@@H](n2cc([C@H]3CC[C@H](CN4CCC(c5ccc6c(c5)-n5c(nc(=O)c7c(Br)cccc75)C65CCCCC5)CC4)CC3)nn2)C(C)(C)C)cc1 |  |  |
| > 1000 | 228 | Cc1ncsc1-c1ccc([C@H](CN2CC(C(=O)O)C2)NC(=O)[C@@H]2C[C@@H](O)CN2C(=O)[C@@H](n2cc([C@H]3CC[C@H](CN4CCC(c5ccc6c(c5)-n5c(nc(=O)c7c(Cl)cccc75)C65CCCCC5)CC4)CC3)nn2)C(C)(C)C)cc1 |  |  |

| SMILES | DC50 [1] [nM] | DC50 [2] [nM] | DC50 [3] [nM] | DC50 [4] [nM] |
| --- | --- | --- | --- | --- |
| Cc1ncsc1-c1ccc([C@H](C)NC(=O)[C@@H]2C[C@@H](O)CN2C(=O)[C@@H](NC(=O)[C@H]2CC[C@H](CN3CCC(c4ccc5c(c4)-n4c(nc(=O)c6c(Cl)cccc64)C54CCCCC4)CC3)CC2)C(C)(C)C)cc1 |  | 8 |  |  |
| Cc1ncsc1-c1ccc([C@H](C)NC(=O)[C@@H]2C[C@@H](O)CN2C(=O)[C@@H](NC(=O)[C@H]2CC[C@H](CN3CCC(c4ccc5c(c4)C4(CCCCC4)c4nc(=O)c6c(Cl)cccc6n4-5)CC3)CC2)C(C)(C)C)cc1 |  | 6.3 |  |  |
